Experimental data as given in US4120954A, “2,2',2"-[S-Phenenyltris(carbonylimino) ]tris-2-deoxy-D-glucopyranose and salts thereof” (American Cyanamid Company, priority 1977, dated 1978).

System: shunt pathway
Assay: Test Code 036 (C-Shunt inhibitor): lysis of fragile human erythrocytes in autologous serum via shunt pathway activated by cobra venom factor
Assay type: cell-based
Conditions: appropriate dilutions of test compound
Text: An active inhibitor protects C2 from C1 and C4; (ii) Test, Code 035 (c3-C9 inhibitor) -- This test determines the ability of the late components of human complement (C3-C9) to lyse EAC 142 in the presence of appropriate dilutions of the test compound. An active inhibitor protects EAC 142 from lysis by human C3-C9; (iii) Test, Code 036 (C-Shunt inhibitor) -- In this test human erythrocytes rendered fragile are lysed in autologous serum via the shunt pathway activated by cobra venom factor in the presence of appropriate dilutions of the test compound. Inhibition of the shunt pathway results in failure of lysis; (iv) Forssman Vasculitis Test -- Here, the well known complement dependent lesion, Forssman vasculitis, is produced in guinea pigs by intradermal injection of rabbit anti-Forssman antiserum. […]

## O=C(N[C@H]1C(OS(=O)(=O)O)O[C@H](COS(=O)(=O)O)[C@@H](OS(=O)(=O)O)[C@@H]1OS(=O)(=O)O)c1cc(C(=O)N[C@H]2C(OS(=O)(=O)O)O[C@H](COS(=O)(=O)O)[C@@H](OS(=O)(=O)O)[C@@H]2OS(=O)(=O)O)cc(C(=O)N[C@H]2C(OS(=O)(=O)O)O[C@H](COS(=O)(=O)O)[C@@H](OS(=O)(=O)O)[C@@H]2OS(=O)(=O)O)c1 (stereo partly drawn) [2,2',2"-[s-Phenenyltris(carbonylimino)]tris-2-deoxy-D-glucopyranose dodecakis (H-sulfate) dodecasalt with trimethylamine]
  Shunt Inhibition 036 Wells: +3 Wells
